Measured values from patent US20120165319A1, “INHIBITORS OF INTERLEUKIN-1 BETA CONVERTING ENZYME” (VERTEX PHARMACEUTICALS INCORPORATED, priority 1995, published 2012).
Read-outs that look alike come from different tables or passages of the source.

Legend:
[1] = test system: IL-1β production, LPS-challenged mice; experiment: In vivo acute assay for efficacy as anti-inflammatory agent: LPS-induced IL-1β production in mice; set-up: species or system mouse; conditions: for percent inhibition of IL-1β production / inhibition at 50 mg/kg: LPS challenged mice, compound PO, 50 mg/kg; for inhibition at 50 mg/kg: Mus musculus, po, read-out: percent inhibition of IL-1β production; for Inhibition (%) of IL-1β production in LPS-challenged mice: oral, dosed at time of LPS challenge
Experimental: In Vivo Acute Assay for Efficacy as Anti-Inflammatory Agent
LPS-Induced IL-1β Production.
Efficacy of 214e and 217e was evaluated in CD1 mice (n=6 per condition) challenged with LPS (20 mg/kg IP). […] Blood was collected seven hours after LPS challenge. Serum IL-1β levels were measure by ELISA. […] Similar results were obtained in a second experiment. […] However, a clear dose response was not apparent.
Compounds 214e and 217e (50 mg/kg) were also administered by oral gavage to assess absorption.
The efficacy of analogs of 214e were also evaluated in LPS challenged mice after IP administration (FIG. 9) and PO administration (FIG. 10).
[…] The protocol is described in Example 7.

IL-1β, human whole blood = experiment: Whole blood assay for IL-1β production; format: cell-based; conditions: Table 17, read-out: Whole human blood IC50
Outline: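 Human whole blood collected on Na2EDTA was treated with serially diluted compound in saline and then stimulated with LPS at 5.0 ng/ml final, for 16-18 h at 30 °C, in duplicate or triplicate. Plasma IL-1β was measured by ELISA at 1:200 dilution.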

[2] = administered 0 h relative to time of LPS challenge
[3] = administered −2 h relative to time of LPS challenge
[4] = 0 h, administered 0 h relative to time of LPS challenge
[5] = 2 h, administered −2 h relative to time of LPS challenge

Structure (SMILES)	IC50 (IL-1β, human whole blood; Homo sapiens)	inhibition at 50 mg/kg [1, 4]	inhibition at 50 mg/kg [1, 5]	also measured
CC(=O)N1C[C@H](NC(=O)c2cc(Cl)c(O)c(Cl)c2)C(=O)N(CC(=O)N[C@H]2CC(=O)OC2OCc2ccccc2)c2ccccc21 (mixture of isomers) [Compound 655, (3S)-2-Oxo-3-(3,5-dichloro-4-hydroxybenzoyl)amino-5-acetyl-N-[(2RS,3S)-benzyloxy-5-oxo-tetrahydrofuran-3-yl]-2,3,4,5-tetrahydro-1H-1,5-benzodiazepine-1-acetamide]				percent inhibition of IL-1β production [1, 2]: 68%; percent inhibition of IL-1β production [1, 3]: 0%
CC(=O)OC1OC(=O)CC1NC(=O)[C@@H]1CCCN2C(=O)CC[C@H](NC(=O)c3ccccc3)C(=O)N12 (mixture of isomers) [Compound 2100h, [1S,9S(2RS,3RS)]9-Benzoylamino-6,10-dioxo-1,2,3,4,7,8,9,10-octahydro-N-(2-acetoxy-5-oxotetrahydrofuran-3-yl)-6H-pyridazino[1,2-a][1,2]diazepine-1-carboxamide]	2000 nM	32%	34%	
O=C1C[C@H](NC(=O)[C@@H]2CCCN3C(=O)CC[C@H](NC(=O)c4cc(Cl)c(O)c(Cl)c4)C(=O)N23)C(OCc2ccccc2)O1 (stereo partly drawn) [Compound 213k, [1S,9S(2RS,3S)]9-[(3,5-Dichloro-4-hydroxybenzoyl)amino]-6,10-dioxo-1,2,3,4,7,8,9,10-octahydro-N-(2-Benzyloxy-5-oxotetrahydrofuran-3-yl)-6H-pyridazino[1,2-a][1,2]diazepine-1-carboxamide]	2000 nM	68%	0%	
CCOC1OC(=O)C[C@@H]1NC(=O)[C@@H]1CCCN2C(=O)CC[C@H](NC(=O)c3ccc(OC)cc3)C(=O)N12 (stereo partly drawn) [Compound 550i, [1S,9S(2RS,3S)]9-[(4-Methoxybenzoyl)amino]-6,10-dioxo-1,2,3,4,7,8,9,10-octahydro-N-(2-ethoxy-5-oxotetrahydrofuran-3-yl)-6H-pyridazino[1,2-a][1,2]diazepine-1-carboxamide]	1400 nM	23%	-10%	
CC(=O)Nc1ccc(C(=O)N[C@H]2CCC(=O)N3CCC[C@@H](C(=O)N[C@H]4CC(=O)OC4OCc4ccccc4)N3C2=O)cc1Cl (stereo partly drawn) [Compound 213l, [1S,9S(2RS,3S)]9-[(3-Chloro-4-acetamidobenzoyl)amino]-6,10-dioxo-1,2,3,4,7,8,9,10-octahydro-N-(2-Benzyloxy-5-oxotetrahydrofuran-3-yl)-6H -pyridazino[1,2-a][1,2]diazepine-1-carboxamide]	2000 nM	80%	-18%	
CCO[C@H]1OC(=O)C[C@@H]1NC(=O)[C@@H]1CCCN2C(=O)CC[C@H](NC(=O)c3nccc4ccccc34)C(=O)N12 [Compound 412e, [1S,9S(2S,3S)]N-(2-Ethoxy-5-oxotetrahydrofuran-3-yl)-6,10-dioxo-9-(isoquinolin-1-oylamino)-1,2,3,4,7,8,9,10-octahydro-6-H-pyridazino[1,2-a][1,2]diazepine-1-carboxamide]				Inhibition (%) of IL-1β production in LPS-challenged mice ([1]; 10 mg/kg dose): 5%; Inhibition (%) of IL-1β production in LPS-challenged mice ([1]; 25 mg/kg dose): 17%; Inhibition (%) of IL-1β production in LPS-challenged mice ([1]; 50 mg/kg dose): 61%
CCOC1OC(=O)C[C@@H]1NC(=O)[C@@H]1CCCN2C(=O)CC[C@H](NC(=O)c3cccc(NC(C)=O)c3)C(=O)N12 (stereo partly drawn) [Compound 550n, [1S,9S (2RS,3S)]9-(3-Acetamido) benzoylamino-6,10-dioxo-N-(2-ethoxy-5-oxo-tetrahydrofuran-3-yl)-1,2,3,4,7,8,9,10-octahydro-6H-pyridazino[1,2-a][1,2]diazepine-1-carboxamide]	< 300 nM	65%	19%	
CN(C)c1ccc(C(=O)N[C@H]2CCC(=O)N3CCC[C@@H](C(=O)N[C@H]4CC(=O)OC4OCc4ccccc4)N3C2=O)cc1 (mixture of isomers) [Compound 213f, [1S,9S(2RS,3S)]9-[(4-Dimethylaminobenzoyl)amino]-6,10-dioxo-1,2,3,4,7,8,9,10-octahydro-N-(2-Benzyloxy-5-oxotetrahydrofuran-3-yl)-6H-pyridazino[1,2-a][1,2]diazepine-1-carboxamide]				IC50 (IL-1β, human whole blood): 3000 nM; percent inhibition of IL-1β production [1, 2]: 8%; percent inhibition of IL-1β production [1, 3]: (−4) %
Nc1ccc(C(=O)N[C@H]2CCC(=O)N3CCC[C@@H](C(=O)N[C@H]4CC(=O)OC4OCc4ccccc4)N3C2=O)cc1Cl (mixture of isomers) [Compound 213h, [1S,9S (2RS,3S)]9-[(3-Chloro-4-aminobenzoyl)amino]-6,10-dioxo-1,2,3,4,7,8,9,10-octahydro-N-(2-Benzyloxy-5-oxotetrahydrofuran-3-yl)-6H-pyridazino[1,2-a][1,2]diazepine-1-carboxamide]				IC50 (IL-1β, human whole blood): 1500 nM; percent inhibition of IL-1β production [1, 2]: 53%; percent inhibition of IL-1β production [1, 3]: 9%
COc1c(Cl)cc(C(=O)N[C@H]2CCC(=O)N3CCC[C@@H](C(=O)N[C@H]4CC(=O)OC4OCc4ccccc4)N3C2=O)cc1Cl (stereo partly drawn) [Compound 213m, [1S,9S(2RS,3S)]9-[(3,5-Dichloro-4-methoxybenzoyl)amino]-6,10-dioxo-1,2,3,4,7,8,9,10-octahydro-N-(2-Benzyloxy-5-oxotetrahydrofuran-3-yl)-6H-pyridazino[1,2-a][1,2]diazepine-1-carboxamide]	2500 nM	42%	26%	
CCOC(=O)C[C@@H](C=O)NC(=O)[C@@H]1CCCN2C(=O)CC[C@H](NC(=O)c3ccccc3)C(=O)N12 [Compound 2100i, [3S(1S,9S)]3-(9-Benzoylamino-6,10-dioxo-1,2,3,4,7,8,9,10-octahydro-6H-pyridazino[1,2-a][1,2]diazepine-1-carboxamido)-4-oxobutanoic acid ethyl ester]		74%	19%	
COc1ccc(C(=O)N[C@H]2CCC(=O)N3CCC[C@@H](C(=O)N[C@H]4CC(=O)OC4OCc4ccccc4)N3C2=O)cc1 (mixture of isomers) [Compound 213i, [1S,9S(2RS,3S)]9-[(4-Methoxybenzoyl)amino]-6,10-dioxo-1,2,3,4,7,8,9,10-octahydro-N-(2-Benzyloxy-5-oxotetrahydrofuran-3-yl)-6H-pyridazino[1,2-a][1,2]diazepine-1-carboxamide]				IC50 (IL-1β, human whole blood): 1100 nM; percent inhibition of IL-1β production [1, 2]: 62%; percent inhibition of IL-1β production [1, 3]: (−11) %
CCOC1OC(=O)C[C@@H]1NC(=O)[C@@H]1CCCN2C(=O)CC[C@H](NC(=O)c3ccc(O)cc3)C(=O)N12 (stereo partly drawn) [Compound 550p, [1S,9S(2RS,3S)]6,10-Dioxo-N-(2-ethoxy-5-oxotetrahydrofuran-3-yl)-9-(4-hydroxybenzoyl)amino-1,2,3,4,7,8,9,10-octahydro-6H-pyridazino[1,2-a][1,2]diazepine-1-carboxamide]	2900 nM	60%	30%	
CCOC1OC(=O)C[C@@H]1NC(=O)[C@@H]1CCCN2C(=O)CC[C@H](NC(=O)c3cc(Cl)c(OC)c(Cl)c3)C(=O)N12 (stereo partly drawn) [Compound 550m, [1S,9S(2RS,3S)]9-[(3,5-Dichloro-4-methoxybenzoyl)amino]-6,10-dioxo-1,2,3,4,7,8,9,10-octahydro-N-(2-ethoxy-5-oxotetrahydrofuran-3-yl)-6H-pyridazino[1,2-a][1,2]diazepine-1-carboxamide]	2000 nM	52%	45%	
O=C1C[C@H](NC(=O)[C@@H]2CCCN3C(=O)CC[C@H](NC(=O)c4ccc(O)cc4)C(=O)N23)C(OCc2ccccc2)O1 (mixture of isomers) [Compound 213p, [1S,9S (2RS,3S)]N-(2-Benzyloxy-5-oxotetrahydrofuran-3-yl)-6,10-dioxo-9-(4-hydroxybenzoyl)amino-1,2,3,4,7,8,9,10-octahydro-6H-pyridazino[1,2-a][1,2]diazepine-1-carboxamide]				IC50 (IL-1β, human whole blood): < 300 nM; percent inhibition of IL-1β production [1, 2]: 29%; percent inhibition of IL-1β production [1, 3]: 21%
CCOC1OC(=O)C[C@@H]1NC(=O)[C@@H]1CCCN2C(=O)CCN(NC(=O)c3ccc4c(c3)OCO4)C(=O)N12 (stereo partly drawn) [Compound 528, [4S(2RS,3S)]6,10-Dioxo-N-(2-ethoxy-5-oxotetrahydrofuran-3-yl)-7-(3,4-methylenedioxybenzoylamino)-1,2,3,4,7,8,9,10-octahydro-6H-pyridazino[1,2-a][1,2,4]triazepine-4-carboxamide]	2200 nM	67%	25%	
O=C1C[C@H](NC(=O)[C@@H]2CCCN3C(=O)CC[C@H](NC(=O)c4ccccc4)C(=O)N23)[C@H](OC2Cc3ccccc3C2)O1 [Compound 2100m, [1S,9S (2R,3S)]9-Benzamido-6,10-dioxo-N-[2-(2-indanyloxy)-5-oxo-tetrahydrofuran-3-yl]-1,2,3,4,7,8,9,10-octahydro-6H-pyridazino[1,2-a][1,2]diazepine-1-carboxamide]		42%	40%	
